Some test systems named below: RXF 393 renal; 786-0 renal; MOLT-4 leukemia; CCRF-CEM leukemia; SF-268 CNS; IGROV1 ovarian; MCF7 breast; NCI-H226 lung; UACC-62 melanoma; HCC-2998 colon; HOP-62 NSCLC; HL-60(TB) leukemia.
Holding throughout (experiment): inhibition of tumour cell growth, NCI panel, 48 h

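In this assay, cells in 96-well plates receive the compound at five concentrations for 48 hours. Endpoints are linearly interpolated between the surrounding concentrations. TGI: concentration producing complete growth inhibition.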 Where only a bound is given, the exact number is not on record here.

In the case of `CN1CCCOC(c2ccc(Cl)cc2)O1` (stereo not drawn), the TGI in the assay with RXF 393 renal, with 786-0 renal, in the assay with MOLT-4 leukemia, in the assay on CCRF-CEM leukemia, in the assay on SF-268 CNS and in the assay on IGROV1 ovarian was above 100 µM in each case. Moreover, the TGI in the assay on MCF7 breast, in the assay on NCI-H226 lung, in the assay on UACC-62 melanoma, in the assay on HCC-2998 colon and with HOP-62 NSCLC was above 100 µM in each case.
Turning to `COC(=O)[C@@H](NC(=O)N(Cc1ccccc1)C[C@H](CC(C)C)NC(=O)[C@@H](NC(=O)OC(C)(C)C)C(C)C)C(C)C`, the TGI with RXF 393 renal, with 786-0 renal, with HL-60(TB) leukemia, in the assay on MOLT-4 leukemia, in the assay with SF-268 CNS and in the assay with NCI-H226 lung was above 100 µM each time. Also, the TGI in the assay on UACC-62 melanoma, in the assay on HCC-2998 colon and in the assay with HOP-62 NSCLC was above 100 µM throughout.
As to `Cn1nnnc1SC(F)(F)c1nc2ccccc2o1`, the TGI with RXF 393 renal, in the assay with 786-0 renal, with MOLT-4 leukemia, with CCRF-CEM leukemia, in the assay on SF-268 CNS and with IGROV1 ovarian was above 100 µM in each case. Moreover, the TGI in the assay with MCF7 breast, in the assay with NCI-H226 lung, in the assay on UACC-62 melanoma, in the assay on HCC-2998 colon and with HOP-62 NSCLC was above 100 µM throughout.
For the compound `COc1cccc(-c2nc(-c3cnccn3)n(C/C=C/c3ccccc3)n2)c1`, the TGI with 786-0 renal, in the assay with MOLT-4 leukemia, in the assay with CCRF-CEM leukemia, with SF-268 CNS, in the assay on IGROV1 ovarian and in the assay on MCF7 breast was above 10 µM throughout. The TGI with NCI-H226 lung, in the assay with UACC-62 melanoma and in the assay on HCC-2998 colon was above 10 µM each time.
As to `CCOC(=O)CCC(NC(=O)c1ccc(NCc2ccc3nc(-c4ccccc4)c(Cl)nc3c2)cc1)C(=O)OCC` (stereo not drawn), the TGI in the assay on RXF 393 renal is above 100 µM; in the assay with 786-0 renal it was above 100 µM; in the assay with HL-60(TB) leukemia it was above 100 µM; in the assay on MOLT-4 leukemia, 44.9 µM; in the assay with CCRF-CEM leukemia it was above 100 µM; with SF-268 CNS it was above 100 µM. For the same compound, the TGI with IGROV1 ovarian, in the assay with NCI-H226 lung, in the assay on HCC-2998 colon and in the assay on HOP-62 NSCLC was above 100 µM in each case.
Regarding `Cc1ccc(NC(=O)C(=O)C2C(=O)NC(=O)NC2=O)cc1C`, the TGI in the assay on RXF 393 renal, in the assay on 786-0 renal, with HL-60(TB) leukemia, in the assay on MOLT-4 leukemia, in the assay with CCRF-CEM leukemia and in the assay with SF-268 CNS was above 100 µM each time. The TGI in the assay with IGROV1 ovarian, in the assay on NCI-H226 lung, in the assay on UACC-62 melanoma, in the assay with HCC-2998 colon and with HOP-62 NSCLC was above 100 µM each time.
On to `c1ccc2c(c1)OCCOCCOc1ccccc1OCCO2`, for which the TGI is above 100 µM with RXF 393 renal; above 100 µM with 786-0 renal; 69.1 µM with HL-60(TB) leukemia; above 100 µM in the assay with MOLT-4 leukemia; above 100 µM in the assay with CCRF-CEM leukemia; above 100 µM in the assay on SF-268 CNS. For the same compound, the TGI in the assay on IGROV1 ovarian, in the assay on NCI-H226 lung, in the assay on UACC-62 melanoma and in the assay with HOP-62 NSCLC was above 100 µM each time.
Take `CC(=O)OCCOCNC(=S)N/N=C/c1ccc([N+](=O)[O-])s1`: the TGI in the assay on RXF 393 renal was above 100 µM; with 786-0 renal it was above 100 µM; in the assay on HL-60(TB) leukemia, 11.5 µM; with MOLT-4 leukemia, above 100 µM; in the assay with CCRF-CEM leukemia it was above 100 µM; with SF-268 CNS, above 100 µM. Also, the TGI with IGROV1 ovarian, in the assay on NCI-H226 lung, with UACC-62 melanoma, in the assay with HCC-2998 colon and with HOP-62 NSCLC was above 100 µM in each case.
Turning to `CC(=O)Nc1c(C(=N)C#N)ncn1CCO`, the TGI in the assay on RXF 393 renal, in the assay on 786-0 renal, in the assay with CCRF-CEM leukemia, in the assay with SF-268 CNS, in the assay on IGROV1 ovarian and in the assay on MCF7 breast was above 100 µM throughout. The TGI in the assay on NCI-H226 lung, in the assay on UACC-62 melanoma, with HCC-2998 colon and with HOP-62 NSCLC was above 100 µM in each case.
For `O=C(Cn1c2ccc(Br)cc2c2nc3ccccc3nc21)NNC(=S)NC1CCCCC1`, the TGI came out at 23.4 µM in the assay on RXF 393 renal; 28.9 µM with 786-0 renal; 22.6 µM in the assay with MOLT-4 leukemia; 18.8 µM with CCRF-CEM leukemia; 39.6 µM with SF-268 CNS; 23.6 µM in the assay with IGROV1 ovarian. Moreover, the TGI is 33.6 µM in the assay on NCI-H226 lung, 43.2 µM with UACC-62 melanoma, 34.6 µM in the assay with HCC-2998 colon and 30.6 µM with HOP-62 NSCLC.
`C/C=C\C(CC(=O)NCC(=O)c1c[nH]c2ccccc12)CC(=O)OC` (stereo not drawn): the TGI in the assay with RXF 393 renal was above 100 µM; with 786-0 renal, above 100 µM; in the assay on MOLT-4 leukemia, above 100 µM; with CCRF-CEM leukemia, 96.5 µM; in the assay with SF-268 CNS, above 100 µM; in the assay on IGROV1 ovarian it was above 100 µM. The TGI with MCF7 breast, in the assay on UACC-62 melanoma, in the assay with HCC-2998 colon and in the assay on HOP-62 NSCLC was above 100 µM each time.
Regarding `COc1ccc(/C=N/N=C(\N)NO)c(OC)c1C`, the TGI was 69.8 µM in the assay on RXF 393 renal; 67.7 µM with 786-0 renal; above 100 µM with MOLT-4 leukemia; above 100 µM with CCRF-CEM leukemia; above 100 µM with SF-268 CNS; above 100 µM in the assay with IGROV1 ovarian. In addition, the TGI was 49.5 µM in the assay on NCI-H226 lung, above 100 µM in the assay on UACC-62 melanoma, 22.1 µM with HCC-2998 colon and 36.7 µM with HOP-62 NSCLC.
With `O=C1CC(=O)NC(=NN2C(=O)/C(=C/c3ccc(Cl)c(Cl)c3)N=C2c2ccccc2)N1`, the TGI with RXF 393 renal is 92.6 µM; with 786-0 renal, above 100 µM; in the assay with MOLT-4 leukemia it was 50.8 µM; with CCRF-CEM leukemia, 45.3 µM; in the assay on SF-268 CNS, above 100 µM; in the assay on IGROV1 ovarian, above 100 µM. Also, the TGI was 49.8 µM in the assay with MCF7 breast; above 100 µM with NCI-H226 lung; 32.6 µM in the assay with UACC-62 melanoma; 39.6 µM with HCC-2998 colon; 79.6 µM with HOP-62 NSCLC.
